Patent publication US6673354B2, “Compositions and methods for treating papillomavirus-infected cells” (priority 1998, dated 2004)
Where no end group is shown, it is not given here.

Experiments:
[1] = molecular target: T1, interaction between HPV16 E1 and E2 (Human papillomavirus type 16, UniProt P03114); test: In vitro HPV E1-E2 binding assay (co-immunoprecipitation / Western blot), HPV16 E1 and HPV16 E2; settings: increasing peptide concentrations, FIG. 6A
T1 construct: made in house; host or cells: Hi-Five insect cells infected with recombinant baculovirus (pVL1392); nuclear extracts
T1 sequence (P03114 whole entry, looked up): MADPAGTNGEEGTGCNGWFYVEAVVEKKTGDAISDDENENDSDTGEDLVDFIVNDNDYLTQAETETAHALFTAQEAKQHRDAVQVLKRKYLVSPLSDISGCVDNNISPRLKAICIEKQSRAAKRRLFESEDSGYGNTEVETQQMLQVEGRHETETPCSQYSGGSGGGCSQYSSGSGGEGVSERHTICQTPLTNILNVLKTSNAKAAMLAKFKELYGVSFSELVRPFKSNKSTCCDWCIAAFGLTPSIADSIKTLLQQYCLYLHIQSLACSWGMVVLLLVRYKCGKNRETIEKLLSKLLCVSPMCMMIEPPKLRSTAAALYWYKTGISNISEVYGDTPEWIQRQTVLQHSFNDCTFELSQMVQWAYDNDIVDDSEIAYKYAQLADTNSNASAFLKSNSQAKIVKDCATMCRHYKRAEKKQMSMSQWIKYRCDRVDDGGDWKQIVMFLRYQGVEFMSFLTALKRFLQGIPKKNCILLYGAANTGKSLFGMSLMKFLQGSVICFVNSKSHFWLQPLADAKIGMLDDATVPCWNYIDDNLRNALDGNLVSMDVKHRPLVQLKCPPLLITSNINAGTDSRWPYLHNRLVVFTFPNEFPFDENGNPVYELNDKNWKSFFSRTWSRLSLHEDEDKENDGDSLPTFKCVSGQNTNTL
Description: (§1) In vitro HPV E1-E2 binding assay. 300-500 ng protein from HPV16 or HPV11 EE-E1 expressing recombinant baculovirus infected cell nuclear extracts and 80-120 ng from HPV E2 baculovirus infected cell nuclear extracts were incubated in 500 μl NET-gel buffer (50 mM Tris-HCl pH7.5, 150 mM NaCl, 0.1% NP-40, 1 mM EDTA, 0.25% gelatin) at 4° C. for one hour. 1-2 μg anti-EE monoclonal antibody was added and incubated with shaking at 4° C. for one hour. Immune complexes were precipitated with protein-G agarose beads and washed twice for 30 minutes with ice cold NET-gel buffer. Precipitated proteins were detected by Western blot using appropriate primary antibodies and anti-rabbit IgG HRP or anti-mouse IgG HRP (Amersham). Membranes were blocked for one hour in TNET (10 mM Tris 7.5, 2.5 mM EDTA, 50 mM NaCl, 0.1% Tween-20) containing 4% (w/v) dry milk. Washes and antibody reactions were carried out in TNET, and proteins were visualized by chemiluminescence (Reneaissance ECL, NEN) and autoradiography. Bands were quantitated using the NIH image program.
(§2) Therefore, we reasoned that a peptide encompassing this domain of HPV16 E2 might inhibit interaction between HPV16 E1 and E2, thereby inhibiting HPV16 DNA replication (FIG. 5). In order to test this possibility, HPV16 E2 and epitope tagged full length HPV16 E1 (EE16-E1) proteins were expressed separately using baculovirus vectors. EE-E1 and associated E2 proteins were immunoprecipitated using an anti-EE epitope monoclonal antibody. Precipitated E2 was detected by Western blot using polyclonal antiserum raised to the DNA binding domain of HPV16 E2 (35). As shown in lane 2 of FIG. 6A, E2 co-immunoprecipitated with EE16-E1, but was not precipitated by the EE epitope antibody in the absence of EE16-E1 (lane 1). Peptides encompassing HPV16 E2 amino acids 29-51 (E2N-WP23) or residues 33-47 (E2N-WP15) of HPV16 E2 were then tested for inhibition of E1-E2 interaction. These peptide sequences were derived from the sequence of HPV16 E2, and were based on an alignment of amino terminal residues that are conserved among the papillomavirus E2 proteins (FIG. 5). […] Both the HPV16 E2 protein itself and the E2 derived peptides act specifically in these assays, since the E39A replication defective HPV16 E2 mutant bound only slightly to EE16-E1 (lanes 14). […] These peptides are named E2N-MP23 and E2N-MP15, respectively (see FIG. 5). […] We have previously shown that a domain spanning amino acids 421-647 of the HPV16 E1 carboxy terminus is necessary and sufficient for E2 interaction (45).

[2] = system: in vitro HPV16 DNA replication; test: In vitro replication of HPV16 DNA (293 cell extract, EE-E1, HPV16 E2); assay type: biochemical; settings: 40 ng EE-E1 and 6 ng HPV16 E2, FIG. 7
Description: In vitro replication reactions. In vitro replication reactions were essentially as described by Kuo et al. (18) in 25 μl reactions at 37° C. for indicated times. Standard reactions were for 2 hours, and were terminated by addition of 200 μl stop solution (20 mM Tris-HCl pH 7.5, 10 mM EDTA, 0.1% SDS, and 20 μg/ml RNase A). After incubation at 37° C. for 15 minutes, proteinase K was added (200 μg/ml) and incubation was continued 30 minutes. Samples were extracted with 250 μl phenol/chloroform/isoamyl alcohol (25:24:1), ethanol precipitated, washed with 70% ethanol, dried, resuspended in 20-30μl TE, and analyzed on a 0.8% agarose gel (TAE). The agarose gel was dried onto Hybond N+ membrane (Amersham), and replicated DNA was visualized by autoradiography. Bands were quantitated by Phosphorimager analysis. Replication templates were pKS7838-7905 (nt7838-7905/1-130) containing the HPV16 replication origin, and pUC7874-99 containing the HPV11 origin of replication (nt7874-7933/1-99). pUC7874-99 was a generously provided by Dr. Louise Chow.
We sought to establish a system for the study of HPV16 DNA replication in vitro, and to determine whether specific interaction between HPV16 E1 and E2 was required for HPV16 DNA replication in this system. […] As has been documented for other papillomavirus E1 proteins, some replication was observed using relatively large amounts of E1 in the absence of E2 (lanes 2 through 7) (6, 16, 22, 33, 40, 48). […] Replication in this assay is ori-dependent, since the small amount of replication of the pKS plasmid lacking the HPV16 origin detected at high concentrations of EE-E1 (FIG. 3B, lanes 1-6) was not stimulated by E2 (FIG. 1B, lanes 7-12).
Since the E2N-WP23 and E2N-WP 15 peptides could inhibit interaction between […] E1 and E2, their ability to inhibit in vitro HPV16 DNA replication was also tested (FIGS. 7A and 7B).

HPV-16 E1-E2 interaction = molecular target: T2, HPV-16 E1-E2 interaction (Human papillomavirus type 16, UniProt P03114); test: In vitro HPV E1-E2 competition binding assay (HPV-16 EE-E1C and HPV-16 E2); settings: 10 μM, 20 μM, and 40 μM peptide, FIG. 14
T2 construct: The carboxy terminus of HPV16-E1, from amino acid 424 to 649, is the minimal domain; made in house; host or cells: E2: nuclear extract of baculovirus-infected Hi-Five cells
T2 sequence (P03114 whole entry, looked up): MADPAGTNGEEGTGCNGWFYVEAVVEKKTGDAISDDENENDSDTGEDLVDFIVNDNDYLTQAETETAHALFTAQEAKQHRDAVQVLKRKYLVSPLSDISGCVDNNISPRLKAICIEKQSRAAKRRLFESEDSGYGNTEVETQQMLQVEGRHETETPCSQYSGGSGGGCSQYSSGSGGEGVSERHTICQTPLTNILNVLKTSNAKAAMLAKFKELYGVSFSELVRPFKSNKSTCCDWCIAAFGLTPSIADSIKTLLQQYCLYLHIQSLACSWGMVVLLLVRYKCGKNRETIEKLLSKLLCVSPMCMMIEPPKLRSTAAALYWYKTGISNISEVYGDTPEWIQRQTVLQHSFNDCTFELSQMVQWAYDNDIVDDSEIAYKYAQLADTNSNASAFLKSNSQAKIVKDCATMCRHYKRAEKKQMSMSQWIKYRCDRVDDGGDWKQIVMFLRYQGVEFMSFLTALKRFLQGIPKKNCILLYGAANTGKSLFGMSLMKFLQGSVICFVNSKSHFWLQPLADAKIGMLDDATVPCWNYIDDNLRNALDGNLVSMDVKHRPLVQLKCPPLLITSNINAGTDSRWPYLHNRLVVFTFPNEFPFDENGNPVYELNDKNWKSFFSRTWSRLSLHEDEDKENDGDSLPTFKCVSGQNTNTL
Description: Use of EE-EIC. The carboxy terminus of HPV16-E1, from amino acid 424 to 649, is the minimal domain necessary for interaction with E2 (Yasugi et al. 1997). An epitope tagged form of this domain (EE-EIC) was used in the E1-E2 interaction assays presented here.
In vitro HPV EI-E2 competition binding assay. HPV-16 EE-EIC (240 ng) in 500 1 NET gel buffer (50 mM Tris-HCI [pH 7.5 ], 150 mM NaCl, 0.1% NP-40, 1 mM EDTA, 0.25% gelatin) were pre-incubated with 0 μM, 10 μM, 20 μM, or 40 μM peptide for 10 minutes on ice. The final concentration of DMSO, the peptide solvent, was kept constant in all samples. Nuclear extract containing HPV-16 E2 was then added, and the mixture was incubated with shaking at 4° C. for 1 hour. Anti-EE monoclonal antibody (1 mg/ml) (BAbCo) was added, and the mixture was incubated with shaking for 30 minutes. Immune complexes were precipitated with protein G-agarose beads for an additional 30 minutes at 4° C. The beads were washed with 500 l ice-cold NET-gel buffer three times.

[3] = molecular target: T3, interaction between HPV16 E1 and E2 (Human papillomavirus type 16, UniProt P03114); test: In vitro HPV E1-E2 binding assay (co-immunoprecipitation / Western blot), HPV16 E1 and HPV16 E2
T3 construct: made in house; host or cells: Hi-Five insect cells infected with recombinant baculovirus (pVL1392); nuclear extracts
Description: as §1, §2

Substance | inhibition of HPV16 E1-E2 interaction [1] | inhibition of in vitro HPV16 DNA replication [2] | inhibition of HPV-16 E1-E2 interaction (E1-E2 complex formation) (HPV-16 E1-E2 interaction) | inhibition of HPV16 E1-E2 interaction ([3]; increasing peptide concentrations, FIG. 6A) | mode of inhibition of E1-E2 interaction ([3]; inhibition plotted as a function of substrate concentration (data not shown))
E2N-MP23: 23-mer peptide of HPV16 E2 aa 29-51 containing alanine at the position analogous to E39 (HIDYWKHMRLACAIYYKAREMGF; UniProt P03120 29-51, looked up, variant E39A) | did not inhibit E1-E2 interaction at concentrations at which the wild type peptide could do so | wild type peptides inhibited replication much more effectively than the respective E39A substituted analog | – | – | –
ERQIKIWFQNRRMKWKKGGWKHMRLECAIYYKAR [Ant-WP] | – | – | comparable to that of wild-type peptide | – | –
GRKKRRQRRRPPQCGGWKHMRLECAIYYKAR (cysteine pairing not given here) [Tat-WP] | – | – | not inhibited | – | –
HIDYWKHMRLECAIYYKAREMGF [E2N-WP23] | – | could effectively inhibit in vitro replication | – | inhibitory effects | competitive inhibition
